Assay [1] has as its target T1, mouse SGLT1 (Mus musculus, UniProt Q8C3K6).
T1 sequence (Q8C3K6 1-665): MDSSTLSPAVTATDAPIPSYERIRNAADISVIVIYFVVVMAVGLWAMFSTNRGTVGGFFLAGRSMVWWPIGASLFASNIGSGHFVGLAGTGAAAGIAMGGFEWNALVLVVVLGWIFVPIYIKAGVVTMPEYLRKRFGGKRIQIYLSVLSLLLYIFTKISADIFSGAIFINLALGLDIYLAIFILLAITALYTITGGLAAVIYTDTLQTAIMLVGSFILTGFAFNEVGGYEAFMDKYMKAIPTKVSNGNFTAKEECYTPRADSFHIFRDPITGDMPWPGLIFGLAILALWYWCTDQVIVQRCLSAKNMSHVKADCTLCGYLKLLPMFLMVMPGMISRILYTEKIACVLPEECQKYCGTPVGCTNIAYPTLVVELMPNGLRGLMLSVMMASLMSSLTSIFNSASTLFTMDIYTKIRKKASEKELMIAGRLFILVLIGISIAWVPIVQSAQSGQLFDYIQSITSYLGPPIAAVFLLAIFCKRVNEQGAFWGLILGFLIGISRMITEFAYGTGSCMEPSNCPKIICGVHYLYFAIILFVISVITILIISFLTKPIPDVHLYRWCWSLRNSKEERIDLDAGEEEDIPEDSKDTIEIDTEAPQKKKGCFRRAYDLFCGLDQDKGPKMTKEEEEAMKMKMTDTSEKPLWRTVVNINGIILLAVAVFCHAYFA
In words: Sodium-dependent 14C-AMG uptake in CHO-K1 cells expressing mouse SGLT1. The format is cell-based. To be noted: n = 9. An excerpt: The cDNA encoding human SGLT1 (slc5a1, NM_000343), human SGLT2 (slc5a2, NM_003041) and mouse SGLT1 (slc5a1, NM_019810.4) are purchased from Openbiosystems, Invitrogen and Openbiosystems, respectively. The cDNA is cloned into pcDNA3.1+ for mammalian expression and is stably transfected into Chinese hamster ovary (CHO)-K1 cells using standard mammalian transfection procedures. An SGLT-expressing sub-clone of each over-expressing cell line is selected based on resistance to neomycin (Geneticin, Invitrogen) and activity in the ^14C-α-methyl-D-glucopyranoside (^14C-AMG) uptake assay (see below). Stable SGLT-expressing cells are maintained using standard cell culture techniques.
The SGLT activity is measured as sodium-dependent ^14C-AMG uptake in the above cell lines described as follows. One hundred μL of culture medium containing 30,000 cells are seeded to each well of a 96-well BioCoat poly-D-lysine plate (Becton Dickson) and cultured at 37° C. overnight. The culture medium is aspirated and cells are washed twice with 200 μL of Reaction Buffer (140 mM NaCl, 2 mM KCl, 1 mM CaCl2, MgCl2, and 14 mM N-2-hydroethylpiperrazine-N′-2-ethanesulfonic acid (Hepes), pH 7.5). The excess buffer is tapped out onto paper towels. Thirty-five μL of Reaction Buffer are added to each well. […] After mixing, the scintillation signal in the plate is counted in a MicroBeta (PerkinElmer). […]

Assay [2] has as its system male rats with STZ-induced diabetes. In words: Mixed meal tolerance test (MTT) in male rats with streptozotocin induced diabetes. The format is in vivo, rat. To be noted: for Glucose value, 0 min.: 30 min after compound, before meal; for Glucose value, 0 min. / Baseline Adjusted AUC (glucose) / Glucose value, 20 min. / Glucose value, 40 min. / Glucose value, 60 min. / Glucose value, 120 min.: mean ± SE; for Baseline Adjusted AUC (glucose): MTT. Here is the method: The test compound is formulated by adding a vehicle of 1% hydroxyethylcellulose (HEC), 0.25% Tween® 80 w/antifoam 0.05% to preweighed test compound to make a 2.5 mg/ml solution. The mixture is probe sonicated for approximately 30 seconds. The resulting solution is used as a stock solution, from which the lower concentration dose solutions are prepared by dilution with the vehicle. STZ, 45 mg/kg, is formulated by dissolving in 0.1M Citrate buffer in 3 ml aliquots and stored in the dark on ice, when not being administered. A high fat content mixed meal (Bio-Serv® Rodent Diet F3282 High Fat) comprising Fat Calories (60%), Carbohydrate Calories (26%) and Protein Calories (15%) is utilized. Single housed Sprague Dawley rats are allowed to acclimate for a period of 3 to 7 days.
In an effort to ensure that the animals have not recently fed, STZ is administered in the afternoon, approximately six hours into the light cycle (lights on 6 am, lights off 6 pm). The animals are anesthetized with isoflurane and STZ is delivered via tail vein injection. Once animals regain consciousness, they are returned to housing and allowed to recover for 7 days.
On the two days immediately prior to the meal tolerance test (MTT) all rats are given a small amount (2-4 g) of the F3282 diet, so they became acclimated to it prior to receiving it during the experiment. On the evening before the experiment, the rats are moved into clean cages and their food is removed. The following morning animals are weighed and a blood sample is taken by tail snip for glucose measurement (Abbott AlphaTRAK™ glucometers: code 29) Animals are grouped n=6 based on fasted body weight and glucose. Thirty minutes after the test compound is orally administered, two glucose measurements are collected. Then a five gram pellet of Bio-Serv® diet 3282 is given. After 20 minutes remaining food is taken away and weighed. Blood samples are taken at 20, 40, 60 and 120 minutes for glucose measurement.

The mark [3] stands for this setting: in words, Example 1 free base 10 and 30 mg/kg, Acarbose 60 mg/kg.

The term IC50 denotes the midpoint of a concentration-inhibition curve. A lower IC50 goes with greater potency in that assay.

In assay [1], `Cc1cc(/C=C/CCN2CCCC3(CCNCC3)C2)ccc1Cc1c(O[C@@H]2O[C@H](CO)[C@@H](O)[C@H](O)[C@H]2O)n[nH]c1C(C)C` [Example 1 (free base), 4-{4-[(1E)-4-(2,9-diazaspiro[5.5]undec-2-yl)but-1-en-1-yl]-2-methylbenzyl}-5-(propan-2-yl)-1H-pyrazol-3-yl beta-D-glucopyranoside] gave a half-maximal inhibitory concentration (IC50) of 10 ± 2 nM. In addition, in assay [2] (10 mg/kg oral), the “Glucose value, 0 min.” value worked out at 139 ± 16.1 mg/dL; the “Baseline Adjusted AUC (glucose)” value came out at 22432 ± 2234; the “Glucose value, 20 min.” value was found to be 221.2 ± 26.3 mg/dL; the “Glucose value, 40 min.” value stood at 268.7 ± 29 mg/dL. Further, in assay [2] (10 mg/kg oral), the “Glucose value, 60 min.” value was found to be 330 ± 36.7 mg/dL and the “Glucose value, 120 min.” value came to 490.8 ± 39.2 mg/dL. In assay [2] (30 mg/kg oral), the “Glucose value, 0 min.” value is 137.4 ± 26.9 mg/dL; the “Baseline Adjusted AUC (glucose)” value worked out at 14649 ± 3673; the “Glucose value, 20 min.” value stood at 195.4 ± 44.8 mg/dL; the “Glucose value, 40 min.” value turned out to be 232 ± 52.2 mg/dL. In assay [2] (30 mg/kg oral), the “Glucose value, 60 min.” value is 263.9 ± 62.2 mg/dL and the “Glucose value, 120 min.” value amounted to 355.3 ± 73.2 mg/dL. Besides, in assay [2] (setting [3]), the “Glucose baseline adjusted AUCs in the MTT” value is recorded as “dose dependent decrease in glucose baseline adjusted AUCs”; the “Glucose in the MTT compared to the vehicle controls” value is “significantly and dose dependently decreases glucose”.

Source of the values: patent US9573970B2, “4-{4-[(1E)-4-(2,9-diazaspiro[5.5]undec-2-yl)but-1-en-1-yl]-2-methylbenzyl}-5-(propan-2-yl)-1H-pyrazol-3-yl beta-D glucopyranoside acetate” (Eli Lilly and Company, priority 2013, dated 2017).
